# From patent US10953027B2, “Active agents and methods of their use for the treatment of metabolic disorders and nonalcoholic fatty liver disease” (Flagship Pioneering Innovations V, Inc., priority 2018, dated 2021)
# Legend:
# Type in all cases: in vitro ADME
# [1] = Assay 2. Stability in Simulated Intestinal Fluid (SIF); details: 1 μM, 37° C., SIF pH 6.7 with pancreatin
# Method in brief: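 Degradation rate measured by LC/MS after acetonitrile quench of timed aliquots, starting at T0. Test compound 1 μM in simulated intestinal fluid (pH 6.7 phosphate buffer, FaSSIF powder, pancreatin), shaken at 37 °C.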
# [2] = Assay 3. Fecal Incubation Stability; details: 1 or 10 μM, human fecal slurry, anaerobic
# Experimental: Assay 3. Fecal Incubation Stability. This assay was used to assess the stability of an acylated active agent in a large intestine. All experiments were performed in an anaerobic chamber containing 90% nitrogen, 5% hydrogen and 5% carbon dioxide. Human fecal matter in a slurry (15% WV) is added to 96 well plates containing YCFA media or other suitable media (1.6 mL). Compounds were added to each individual well to reach a final analyte concentration of 1 or 10 μM, and the material was mixed by pipetting. At set time points a sample was removed, quenched with acetonitrile, and analyzed by LC/MS.
# [3] = Assay 1. Stability in Simulated Gastric Fluid (SGF); details: 1 μM, 37° C., SGF pH 1.6 with pepsin
# Method in brief: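 Simulated gastric fluid, prepared fresh as NaCl buffer at pH 1.6 with 0.1 mg/mL pepsin and FaSSIF powder, received test compound to 1 μM final and was held at 37 °C. LC/MS of acetonitrile-quenched samples, taken immediately and then periodically, gave degradation rates.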
Compound,Assay 2 (SIF) (% @ Remaining 4 hours) [1],Assay 3 (% Remaining at 24 h) [2],Assay 1 (SGF) (% Remaining @ 1 hours) [3]
"CCCC(=O)O[C@@H]1[C@@H](OC(=O)CCC)[C@H](OC)OC[C@H]1OC(=O)CCC [Compound 121, (2R,3R,4S,5R)-4,5-bis(butanoyloxy)-2-methoxyoxan-3-yl Butanoate]",A (A: <25% of the tested compound remaining),A (A: <25% of the tested compound remaining),–
"[2H]C([2H])([2H])C([2H])([2H])CC(=O)O[C@@H]1[C@@H](OC(=O)CC([2H])([2H])C([2H])([2H])[2H])[C@H](Oc2ccc(N)cc2C(=O)O)OC[C@H]1OC(=O)CC([2H])([2H])C([2H])([2H])[2H] [Compound 230, 5-amino-2-{[(2S,3R,4S,5R)-3,4,5-tris[(3,3,4,4,4-^2H5)butanoyloxy]oxan-2-yl]oxy}benzoic Acid]",–,B (B: 25-75% of the tested compound remaining),–
"O=C(Cc1c[nH]c2ccccc12)Oc1ccc(/C=C/c2cc(OC(=O)Cc3c[nH]c4ccccc34)cc(OC(=O)Cc3c[nH]c4ccccc34)c2)cc1 [Compound 260, 4-[(1E)-2-[3,5-bis({[2-(1H-indol-3-yl)acetyl]oxy})phenyl]ethenyl]phenyl 2-(1H-indol-3-yl)acetate]",–,A (A: <25% of the tested compound remaining),–
"CCC(=O)OC[C@H]1O[C@@H](OC)[C@H](OC(=O)CC)[C@@H](OC(=O)CC)[C@@H]1OC(=O)CC [Compound 92, [(2R,3R,4S,5R,6R)-6-methoxy-3,4,5-tris(propanoyloxy)oxan-2-yl]methyl Propanoate]",A (A: <25% of the tested compound remaining),A (A: <25% of the tested compound remaining),–
"C[C@@H]1O[C@@H](OC(=O)CCc2c[nH]c3ccccc23)[C@@H](OC(=O)CCc2c[nH]c3ccccc23)[C@H](OC(=O)CCc2c[nH]c3ccccc23)[C@@H]1OC(=O)CCc1c[nH]c2ccccc12 [Compound 97, (2S,3S,4R,5R,6S)-3,4,5-tris({[3-(1H-indol-3-yl)propanoyl]oxy})-6-methyloxan-2-yl 3-(1H-indol-3-yl)propanoate]",A (A: <25% of the tested compound remaining),A (A: <25% of the tested compound remaining),–
"CCCC(=O)O[C@H]1[C@H](OC(=O)CCC)COC(O)[C@@H]1OC(=O)CCC (stereo partly drawn) [Compound 190, (3R,4S,5R)-4,5-bis(butanoyloxy)-2-hydroxyoxan-3-yl Butanoate]",A (A: <25% of the tested compound remaining),A (A: <25% of the tested compound remaining),–
"O=C(CCc1c[nH]c2ccccc12)Oc1ccc2c(c1)oc(=O)c1cc(OC(=O)CCc3c[nH]c4ccccc34)c(OC(=O)CCc3c[nH]c4ccccc34)cc12 [Compound 246, 8,9-bis({[3-(1H-indol-3-yl)propanoyl]oxy})-6-oxo-6H-benzo[c]chromen-3-yl 3-(1H-indol-3-yl)propanoate]",B (B: 25-75% of the tested compound remaining),B (B: 25-75% of the tested compound remaining),–
"CCC(=O)O[C@@H]1[C@H](OC(=O)CC)C=C(C(=O)O)C[C@H]1OC(=O)CC [Compound 254, (3R,4S,5R)-3,4,5-tris(propanoyloxy)cyclohex-1-ene-1-carboxylic Acid]",–,B (B: 25-75% of the tested compound remaining),–
"[2H]C([2H])([2H])C([2H])([2H])CC(=O)O[C@@H]1[C@@H](OC(=O)CC([2H])([2H])C([2H])([2H])[2H])[C@H](Oc2ccc(N)cc2C(=O)O)OC[C@H]1O [Compound 234, 5-amino-2-{[(2S,3R,4S,5R)-3,4-bis[(3,3,4,4,4-^2H5)butanoyloxy]-5-hydroxyoxan-2-yl]oxy}benzoic Acid]",–,B (B: 25-75% of the tested compound remaining),–
"O=C(CCc1c[nH]c2ccccc12)O[C@H]1OC[C@H](OC(=O)CCc2c[nH]c3ccccc23)[C@H](OC(=O)CCc2c[nH]c3ccccc23)[C@H]1OC(=O)CCc1c[nH]c2ccccc12 [Compound 181, (2R,3R,4S,5S)-3,4,5-tris({[3-(1H-indol-3-yl)propanoyl]oxy})oxan-2-yl 3-(1H-indol-3-yl)propanoate]",A (A: <25% of the tested compound remaining),A (A: <25% of the tested compound remaining),–
"CCCC(=O)OC[C@H]1O[C@@H](OC)[C@H](OC(=O)CCC)[C@@H](OC(=O)CCC)[C@@H]1OC(=O)CCC [Compound 91, [(2R,3R,4S,5R,6R)-3,4,5-tris(butanoyloxy)-6-methoxyoxan-2-yl]methyl Butanoate]",A (A: <25% of the tested compound remaining),A (A: <25% of the tested compound remaining),–
"CCC(=O)OC[C@H]1O[C@@H](OC)[C@H](OC(=O)CC)[C@@H](OC(=O)CC)[C@H]1OC(=O)CC [Compound 94, [(2R,3S,4S,5R,6R)-6-methoxy-3,4,5-tris(propanoyloxy)oxan-2-yl]methyl Propanoate]",A (A: <25% of the tested compound remaining),A (A: <25% of the tested compound remaining),–
"C[C@@H]1O[C@H](OC(=O)CCc2c[nH]c3ccccc23)[C@@H](OC(=O)CCc2c[nH]c3ccccc23)[C@H](OC(=O)CCc2c[nH]c3ccccc23)[C@@H]1OC(=O)CCc1c[nH]c2ccccc12 [Compound 103, (2R,3S,4R,5R,6S)-3,4,5-tris({[3-(1H-indol-3-yl)propanoyl]oxy})-6-methyloxan-2-yl 3-(1H-indol-3-yl)propanoate]",A (A: <25% of the tested compound remaining),–,B (B: 25-75% of the tested compound remaining)
"CCCC(=O)O[C@H](C)CCOC(=O)Oc1ccc(/C=C/c2cc(OC(=O)OCC[C@@H](C)OC(=O)CCC)cc(OC(=O)OCC[C@@H](C)OC(=O)CCC)c2)cc1 [Compound 75, (2R,2′R)-((((5-((E)-4-((((R)-3-(butyryloxy)butoxy)carbonyl)oxy)styryl)-1,3-phenylene)bis(oxy))bis(carbonyl))bis(oxy))bis(butane-4,2-diyl) dibutyrate]",B (B: 25-75% of the tested compound remaining),–,C (C: >75% of the tested compound remaining)
"O=C(CCc1c[nH]c2ccccc12)O[C@@H]1[C@H](OC(=O)CCc2c[nH]c3ccccc23)COC(O)[C@@H]1OC(=O)CCc1c[nH]c2ccccc12 (stereo partly drawn) [Compound 167, (3R,4R,5R)-6-hydroxy-4,5-bis({[3-(1H-indol-3-yl)propanoyl]oxy})oxan-3-yl 3-(1H-indol-3-yl)propanoate]",A (A: <25% of the tested compound remaining),–,C (C: >75% of the tested compound remaining)
"CCCC(=O)Oc1cc(OC(=O)CCC)c2c(=O)cc(-c3ccc(OC(=O)CCC)c(OC(=O)CCC)c3)oc2c1 [Compound 202, 2-[3,4-bis(butanoyloxy)phenyl]-5-(butanoyloxy)-4-oxo-4H-chromen-7-yl Butanoate]",A (A: <25% of the tested compound remaining),–,C (C: >75% of the tested compound remaining)
"CCCC(=O)Oc1ccc([C@@H]2CC(=O)c3c(OC(=O)CCC)cc(OC(=O)CCC)cc3O2)cc1 [Compound 22, (S)-2-(4-(butyryloxy)phenyl)-4-oxochromane-5,7-diyl dibutyrate]",A (A: <25% of the tested compound remaining),–,B (B: 25-75% of the tested compound remaining)
"O=C(Cc1c[nH]c2ccccc12)O[C@@H]1OC[C@H](OC(=O)Cc2c[nH]c3ccccc23)[C@H](OC(=O)Cc2c[nH]c3ccccc23)[C@H]1OC(=O)Cc1c[nH]c2ccccc12 [Compound 178, (2S,3R,4S,5S)-3,4,5-tris({[2-(1H-indol-3-yl)acetyl]oxy})oxan-2-yl 2-(1H-indol-3-yl)acetate]",–,A (A: <25% of the tested compound remaining),–
"CCCC(=O)Oc1ccc(/N=N/c2ccc(OC(=O)CCC)c(C(=O)O)c2)cc1C(=O)O [Compound 32, 2-butanoyloxy-5-[(E)-(4-butanoyloxy-3-carboxy-phenyl)azo]benzoic Acid]",A (A: <25% of the tested compound remaining),–,A (A: <25% of the tested compound remaining)
"CCC(=O)O[C@@H]1[C@@H](OC(=O)CC)[C@H](OC(=O)CC)CO[C@H]1O [Compound 161, (2R,3R,4S,5R)-2-hydroxy-4,5-bis(propanoyloxy)oxan-3-yl Propanoate]",A (A: <25% of the tested compound remaining),–,C (C: >75% of the tested compound remaining)
"CCCC(=O)Oc1ccc2c(c1)oc(=O)c1cc(OC(=O)CCC)c(OC(=O)CCC)cc12 [Compound 248, 8,9-bis(butanoyloxy)-6-oxo-6H-benzo[c]chromen-3-yl Butanoate]",–,A (A: <25% of the tested compound remaining),–
